# Experiments:
# [1] = system: Capan-2; assay: cells; type: functional, cell-based, Homo sapiens; conditions: Homo sapiens, Capan-2;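 further: Capan-2 cell growth inhibition, read out with a viability assay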
# Description: SANGER: Inhibition of human Capan-2 cell growth in a cell viability assay.
# [2] = system: D-542MG; assay: cells; type: functional, cell-based, Homo sapiens; conditions: Homo sapiens, D-542MG
# Description: SANGER: Inhibition of human D-542MG cell growth in a cell viability assay.
# [3] = system: DBTRG-05MG; assay: cells; type: functional, cell-based, Homo sapiens; conditions: Homo sapiens, DBTRG-05MG;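 further: cell viability assay measuring growth inhibition of human DBTRG-05MG cells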
# Description: SANGER: Inhibition of human DBTRG-05MG cell growth in a cell viability assay.
# [4] = system: EGI-1; assay: cells; type: functional, cell-based, Homo sapiens; conditions: Homo sapiens, EGI-1;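 further: cell viability readout used to gauge growth inhibition of EGI-1 cells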
# Description: SANGER: Inhibition of human EGI-1 cell growth in a cell viability assay.
# [5] = system: FTC-133; assay: cells; type: functional, cell-based, Homo sapiens; conditions: Homo sapiens, FTC-133
# [6] = system: HCC1395; assay: cells; type: functional, cell-based, Homo sapiens; conditions: Homo sapiens, HCC1395;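 further: growth inhibition of HCC1395 cells, read out by a cell viability assay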
# Description: SANGER: Inhibition of human HCC1395 cell growth in a cell viability assay.
# [7] = system: HCC1806; assay: cells; type: functional, cell-based, Homo sapiens; conditions: Homo sapiens, HCC1806;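 further: growth inhibition of the cancer cell line, determined with a cell viability assay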
# Description: SANGER: Inhibition of human HCC1806 cell growth in a cell viability assay.
# [8] = system: HN; assay: cells; type: functional, cell-based, Homo sapiens; conditions: Homo sapiens, HN
# Description: SANGER: Inhibition of human HN cell growth in a cell viability assay.
# [9] = system: HuP-T3; assay: cells; type: functional, cell-based, Homo sapiens; conditions: Homo sapiens, HuP-T3;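 further: HuP-T3 cell growth inhibition, read out with a cell viability assay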
# Description: SANGER: Inhibition of human HuP-T3 cell growth in a cell viability assay.
# [10] = system: JIYOYE; assay: cells; type: functional, cell-based, Homo sapiens; conditions: Homo sapiens, JIYOYE
# Description: SANGER: Inhibition of human JiyoyeP-2003 cell growth in a cell viability assay.
# [11] = system: K052; assay: cells; type: functional, cell-based, Homo sapiens; conditions: Homo sapiens, K052;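 further: Read-out from a cell viability assay, IC50 reflecting suppression of K052 cell growth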
# Description: SANGER: Inhibition of human K052 cell growth in a cell viability assay.
# [12] = system: KU-19-19; assay: cells; type: functional, cell-based, Homo sapiens; conditions: Homo sapiens, KU-19-19
# Description: SANGER: Inhibition of human KU-19-19 cell growth in a cell viability assay.
# [13] = system: KYSE-270; assay: cells; type: functional, cell-based, Homo sapiens; conditions: Homo sapiens, KYSE-270;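 further: cell growth inhibition measured with a viability assay in the human KYSE-270 line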
# Description: SANGER: Inhibition of human KYSE-270 cell growth in a cell viability assay.
# [14] = system: KYSE-510; assay: cells; type: functional, cell-based, Homo sapiens; conditions: Homo sapiens, KYSE-510;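 further: cell viability readout used to measure how strongly growth of the cell line is suppressed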
# Description: SANGER: Inhibition of human KYSE-510 cell growth in a cell viability assay.
# [15] = system: LOUCY; assay: cells; type: functional, cell-based, Homo sapiens; conditions: Homo sapiens, LOUCY;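 further: growth inhibition of human LOUCY cells, read out with a cell viability assay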
# Description: SANGER: Inhibition of human LOUCY cell growth in a cell viability assay.
# [16] = system: M059J; assay: cells; type: functional, cell-based, Homo sapiens; conditions: Homo sapiens, M059J;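 further: growth inhibition of M059J cells, read out with a cell viability assay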
# Description: SANGER: Inhibition of human M059J cell growth in a cell viability assay.
# [17] = system: MDA-MB-157; assay: cells; type: functional, cell-based, Homo sapiens; conditions: Homo sapiens, MDA-MB-157
# Description: SANGER: Inhibition of human MDA-MB-157 cell growth in a cell viability assay.
# [18] = system: ME-180; assay: cells; type: functional, cell-based, Homo sapiens; conditions: Homo sapiens, ME-180;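 further: cell viability assay measuring growth inhibition of ME-180 cells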
# Description: SANGER: Inhibition of human ME-180 cell growth in a cell viability assay.
# [19] = system: MEL-JUSO; assay: cells; type: functional, cell-based, Homo sapiens; conditions: Homo sapiens, MEL-JUSO;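 further: growth inhibition of human MEL-JUSO cells, read out with a cell viability assay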
# Description: SANGER: Inhibition of human MEL-JUSO cell growth in a cell viability assay.
# [20] = system: NCI-H1623; assay: cells; type: functional, cell-based, Homo sapiens; conditions: Homo sapiens, NCI-H1623;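 further: cell viability assay used as the read-out for growth inhibition of NCI-H1623 cells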
# Description: SANGER: Inhibition of human NCI-H1623 cell growth in a cell viability assay.
# [21] = system: NCI-H2227; assay: cells; type: functional, cell-based, Homo sapiens; conditions: Homo sapiens, NCI-H2227;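 further: growth inhibition of the human cell line, read out with a cell viability assay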
# Description: SANGER: Inhibition of human NCI-H2227 cell growth in a cell viability assay.
# [22] = system: NCI-H2347; assay: cells; type: functional, cell-based, Homo sapiens; conditions: Homo sapiens, NCI-H2347;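 further: growth inhibition of the cell line, read out with a cell viability assay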
# Description: SANGER: Inhibition of human NCI-H2347 cell growth in a cell viability assay.
# [23] = system: NCI-H810; assay: cells; type: functional, cell-based, Homo sapiens; conditions: Homo sapiens, NCI-H810;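 further: IC50 reflects inhibition of cancer cell line growth, read out with a cell viability assay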
# Description: SANGER: Inhibition of human NCI-H810 cell growth in a cell viability assay.
# [24] = system: OAW-28; assay: cells; type: functional, cell-based, Homo sapiens; conditions: Homo sapiens, OAW-28;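 further: growth inhibition of OAW-28 cells, read out with a cell viability assay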
# Description: SANGER: Inhibition of human OAW-28 cell growth in a cell viability assay.
# [25] = system: OE19; assay: cells; type: functional, cell-based, Homo sapiens; conditions: Homo sapiens, OE19;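 further: growth inhibition of OE19 cells, measured through a cell viability read-out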
# Description: SANGER: Inhibition of human OE19 cell growth in a cell viability assay.
# [26] = system: P31-FUJ; assay: cells; type: functional, cell-based, Homo sapiens; conditions: Homo sapiens, P31-FUJ;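 further: growth inhibition of P31-FUJ cells, read out with a viability assay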
# Description: SANGER: Inhibition of human P31-FUJ cell growth in a cell viability assay.
# [27] = system: PA-1; assay: cells; type: functional, cell-based, Homo sapiens; conditions: Homo sapiens, PA-1;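 further: IC50 for suppression of PA-1 cell proliferation, determined with a cell viability read-out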
# Description: SANGER: Inhibition of human PA-1 cell growth in a cell viability assay.
# [28] = system: RPMI-6666; assay: cells; type: functional, cell-based, Homo sapiens; conditions: Homo sapiens, RPMI-6666
# Description: SANGER: Inhibition of human RPMI-6666 cell growth in a cell viability assay.
# [29] = system: SAS; assay: cells; type: functional, cell-based, Homo sapiens; conditions: Homo sapiens, SAS;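 further: growth inhibition of SAS cells, read out with a cell viability assay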
# Description: SANGER: Inhibition of human SAS cell growth in a cell viability assay.
# [30] = system: SNU-423; assay: cells; type: functional, cell-based, Homo sapiens; conditions: Homo sapiens, SNU-423
# Description: SANGER: Inhibition of human SNU-423 cell growth in a cell viability assay.
# [31] = system: SW626; assay: cells; type: functional, cell-based, Homo sapiens; conditions: Homo sapiens, SW626;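 further: growth inhibition of SW626 cells, measured with a cell viability assay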
# Description: SANGER: Inhibition of human SW626 cell growth in a cell viability assay.
# [32] = system: SW948; assay: cells; type: functional, cell-based, Homo sapiens; conditions: Homo sapiens, SW948;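 further: growth inhibition of SW948 cells, read out with a cell viability assay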
# Description: SANGER: Inhibition of human SW948 cell growth in a cell viability assay.
# [33] = system: SiHa; assay: cells; type: functional, cell-based, Homo sapiens; conditions: Homo sapiens, SiHa;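 further: Viability-based readout of growth inhibition in SiHa cells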
# Description: SANGER: Inhibition of human SiHa cell growth in a cell viability assay.
# [34] = system: T-24; assay: cells; type: functional, cell-based, Homo sapiens; conditions: Homo sapiens, T-24;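 further: growth inhibition of T-24 cells, read out with a cell viability assay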
# Description: SANGER: Inhibition of human T-24 cell growth in a cell viability assay.
# [35] = system: A204; assay: cells; type: functional, cell-based, Homo sapiens; conditions: Homo sapiens, A204;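 further: growth inhibition of human A204 cells, read out with a cell viability assay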
# Description: SANGER: Inhibition of human A204 cell growth in a cell viability assay.
# [36] = system: A-375; assay: cells; type: functional, cell-based, Homo sapiens; conditions: Homo sapiens, A-375;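 further: growth inhibition of A375 cells, read out with a cell viability assay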
# Description: SANGER: Inhibition of human A375 cell growth in a cell viability assay.
# [37] = system: AU565; assay: cells; type: functional, cell-based, Homo sapiens; conditions: Homo sapiens, AU565;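 further: cell viability assay measuring growth inhibition of human AU565 cells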
# Description: SANGER: Inhibition of human AU565 cell growth in a cell viability assay.
# [38] = system: ASPC1; assay: cells; type: functional, cell-based, Homo sapiens; conditions: Homo sapiens, ASPC1;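 further: growth inhibition of AsPC-1 cells, read out with a cell viability assay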
# Description: SANGER: Inhibition of human AsPC-1 cell growth in a cell viability assay.
# [39] = system: BC-3; assay: cells; type: functional, cell-based, Homo sapiens; conditions: Homo sapiens, BC-3;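 further: cell viability assay measuring growth inhibition of human BC-3 cells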
# Description: SANGER: Inhibition of human BC-3 cell growth in a cell viability assay.
# [40] = system: BL-70; assay: SANGER: Inhibition of human BL-70 cell growth in a cell viability assay.; type: functional, cell-based; conditions: Homo sapiens, BL-70
# [41] = system: C32; assay: cells; type: functional, cell-based, Homo sapiens; conditions: Homo sapiens, C32;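 further: cell viability assay, with IC50 reflecting inhibition of C32 cell growth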
# Description: SANGER: Inhibition of human C32 cell growth in a cell viability assay.
# [42] = system: CA46; assay: cells; type: functional, cell-based, Homo sapiens; conditions: Homo sapiens, CA46;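 further: growth inhibition of human CA46 cells, read out by a cell viability assay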
# Description: SANGER: Inhibition of human CA46 cell growth in a cell viability assay.
# [43] = system: CAL-54; assay: cells; type: functional, cell-based, Homo sapiens; conditions: Homo sapiens, CAL-54;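 further: growth inhibition of CAL-54 cells, read out by a viability measurement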
# Description: SANGER: Inhibition of human CAL-54 cell growth in a cell viability assay.
# [44] = system: UACC-62; assay: cells; type: functional, cell-based, Homo sapiens; conditions: Homo sapiens, UACC-62;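 further: growth inhibition of human UACC-62 cells, read out by a cell viability assay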
# Description: SANGER: Inhibition of human UACC-62 cell growth in a cell viability assay.
# [45] = system: VMRC-RCZ; assay: cells; type: functional, cell-based, Homo sapiens; conditions: Homo sapiens, VMRC-RCZ
# Description: SANGER: Inhibition of human VMRC-RCZ cell growth in a cell viability assay.
# [46] = system: WM-115; assay: cells; type: functional, cell-based, Homo sapiens; conditions: Homo sapiens, WM-115
# Description: SANGER: Inhibition of human WM-115 cell growth in a cell viability assay.
# [47] = system: COLO-678; assay: cells; type: functional, cell-based, Homo sapiens; conditions: Homo sapiens, COLO-678
# Description: SANGER: Inhibition of human COLO-678 cell growth in a cell viability assay.
compound,measurement,setting,value
Nc1ccn([C@@H]2O[C@H](CO)[C@@H](O)C2(F)F)c(=O)n1 [GEMCITABINE],IC50,[1],> 1020 nM
same,IC50,[2],> 1020 nM
same,IC50,[3],122 nM
same,IC50,[4],214 nM
same,IC50,[5],87.5 nM
same,IC50,[6],> 1020 nM
same,IC50,[7],2.91 nM
same,IC50,[8],54.1 nM
same,IC50,[9],146 nM
same,IC50,[10],39.4 nM
same,IC50,[11],137 nM
same,IC50,[12],> 1020 nM
same,IC50,[13],< 4 nM
same,IC50,[14],< 4 nM
same,IC50,[15],20.7 nM
same,IC50,[16],21.1 nM
same,IC50,[17],> 1020 nM
same,IC50,[18],38.8 nM
same,IC50,[19],< 4 nM
same,IC50,[20],187 nM
same,IC50,[21],> 1020 nM
same,IC50,[22],792 nM
same,IC50,[23],8.56 nM
same,IC50,[24],45.4 nM
same,IC50,[25],702 nM
same,IC50,[26],> 1020 nM
same,IC50,[27],8.99 nM
same,IC50,[28],< 4 nM
same,IC50,[29],20.5 nM
same,IC50,[30],62.5 nM
same,IC50,[31],4.46 nM
same,IC50,[32],> 1020 nM
same,IC50,[33],> 1020 nM
same,IC50,[34],> 1020 nM
same,IC50,[35],11.2 nM
same,IC50,[36],< 4 nM
same,IC50,[37],21.8 nM
same,IC50,[38],> 1020 nM
same,IC50,[39],221 nM
same,IC50,[40],111 nM
same,IC50,[41],> 1020 nM
same,IC50,[42],293 nM
same,IC50,[43],298 nM
same,IC50,[44],813 nM
same,IC50,[45],1.54 nM
same,IC50,[46],> 1020 nM
same,IC50,[47],> 1020 nM
COc1cccc2c1C(=O)c1c(O)c3c(c(O)c1C2=O)C[C@@](O)(C(=O)CO)C[C@@H]3O[C@H]1C[C@H](N)[C@H](O)[C@H](C)O1 [DOXORUBICIN],IC50,[1],898 nM
same,IC50,[2],> 1020 nM
same,IC50,[3],67.1 nM
same,IC50,[4],598 nM
same,IC50,[5],229 nM
same,IC50,[6],> 1020 nM
same,IC50,[7],75 nM
same,IC50,[8],354 nM
same,IC50,[9],166 nM
same,IC50,[10],138 nM
same,IC50,[11],> 1020 nM
same,IC50,[12],> 1020 nM
same,IC50,[13],7.21 nM
same,IC50,[14],15.5 nM
same,IC50,[15],21.3 nM
same,IC50,[16],31.4 nM
same,IC50,[17],499 nM
same,IC50,[18],186 nM
same,IC50,[19],14.5 nM
same,IC50,[20],605 nM
same,IC50,[21],> 1020 nM
same,IC50,[22],158 nM
same,IC50,[23],18.8 nM
same,IC50,[24],179 nM
same,IC50,[25],200 nM
same,IC50,[26],> 1020 nM
same,IC50,[27],44.5 nM
same,IC50,[28],66 nM
same,IC50,[29],114 nM
same,IC50,[30],155 nM
same,IC50,[31],112 nM
same,IC50,[32],> 1020 nM
same,IC50,[33],> 1020 nM
same,IC50,[34],245 nM
same,IC50,[35],12.9 nM
same,IC50,[36],9.17 nM
same,IC50,[37],105 nM
same,IC50,[38],855 nM
same,IC50,[39],166 nM
same,IC50,[40],342 nM
same,IC50,[41],> 1020 nM
same,IC50,[42],137 nM
same,IC50,[43],301 nM
same,IC50,[44],> 1020 nM
same,IC50,[45],93.3 nM
same,IC50,[46],> 1020 nM
same,IC50,[47],427 nM
O=C(O)c1ccc(-c2c[nH]c3ncc(-c4ccccc4)cc23)cc1C1CCCC1 [GSK-650394],IC50,[1],> 16000 nM
same,IC50,[2],> 16000 nM
same,IC50,[3],> 16000 nM
same,IC50,[4],> 16000 nM
same,IC50,[5],> 16000 nM
same,IC50,[6],> 16000 nM
same,IC50,[7],> 16000 nM
same,IC50,[8],> 16000 nM
same,IC50,[9],> 16000 nM
same,IC50,[10],> 16000 nM
same,IC50,[11],> 16000 nM
same,IC50,[12],> 16000 nM
same,IC50,[13],2410 nM
same,IC50,[14],2130 nM
same,IC50,[15],> 16000 nM
same,IC50,[16],> 16000 nM
same,IC50,[17],> 16000 nM
same,IC50,[18],> 16000 nM
same,IC50,[19],4690 nM
same,IC50,[20],> 16000 nM
same,IC50,[21],> 16000 nM
same,IC50,[22],> 16000 nM
same,IC50,[23],> 16000 nM
same,IC50,[24],> 16000 nM
same,IC50,[25],> 16000 nM
same,IC50,[26],> 16000 nM
same,IC50,[27],3330 nM
same,IC50,[28],> 16000 nM
same,IC50,[29],> 16000 nM
same,IC50,[30],> 16000 nM
same,IC50,[31],> 16000 nM
same,IC50,[32],> 16000 nM
same,IC50,[33],> 16000 nM
same,IC50,[34],> 16000 nM
same,IC50,[35],> 16000 nM
same,IC50,[36],5250 nM
same,IC50,[37],> 16000 nM
same,IC50,[38],> 16000 nM
same,IC50,[39],1870 nM
same,IC50,[40],> 16000 nM
same,IC50,[41],> 16000 nM
same,IC50,[42],> 16000 nM
same,IC50,[43],> 16000 nM
same,IC50,[44],> 16000 nM
same,IC50,[45],> 16000 nM
same,IC50,[46],> 16000 nM
same,IC50,[47],> 16000 nM

# — ChEMBL document CHEMBL1201861, “Genomics of Drug Sensitity in Cancer screening data, Wellcome Trust Sanger Institute”
